What was measured:
Aβ fibril = details: cited from earlier work
[1] = Brain concentration of PIB analog TS3124; details: in vivo
Aβ (1-40) peptides = Aβ (1-40) peptides (Homo sapiens, UniProt P05067); assay: UV aggregation assay; assay type: biochemical
Method: Aβ peptide aggregation and the impact of drugs to slow or prevent Aβ aggregation was measured by a UV absorbance assay (Findeis, 1999). Aβ (1-40) peptides, at 50 μM, were mixed with 50 μM drug in assay buffer and the plate was incubated at ambient temperature on a plate reader. The UV absorbance was monitored at 540 nm over a 2-3 h period.
Polymerization of Aβ-monomer peptides into clusters of trimers and tetramers initiates the Aβ aggregation process into protofibrils and then into fibrils that form amyloid plaques.

atherosclerotic plaque = details: mice; cited from earlier work
Aβ peptide = Aβ peptide (Homo sapiens, UniProt P05067); assay: Aβ aggregation by thioflavin T assay; assay type: biochemical
Method: One of the most routinely used approaches to monitor Aβ polymerization is the thioflavin T binding assay. […] Aβ peptide at 5 μM was mixed with 10 μM thioflavin T with drug at different concentrations.

[2] = human, oral inhalation, high inspiratory rates; cited from earlier work
interleukin-6 (IL-6) = details: mice, stress-related coronary inflammation; cited from earlier work
[3] = Biodistribution of F-18 cromolyn in normal mice after intravenous injection; assay type: in vivo; details: for Tissue Distribution, blood / Tissue Distribution, brain / Tissue Distribution, heart / Tissue Distribution, liver / Tissue Distribution, lung: normal mice, i.v. tail vein
Method: At 5 min, organ activity (DPG) was: heart: 1.09%, blood: 3.3%, lung: 1.90%, liver: 7.69%, and brain: 0.15%. […] The data is provided in Table 1 below and in bar graph format in FIG. 4.

[4] = as above; assay type: in vivo; details: i.v. tail vein

Chain of Aβ (1-40) peptides (P05067 672-711 limits assumed): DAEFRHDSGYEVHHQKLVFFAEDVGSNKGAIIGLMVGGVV
Chain of Aβ peptide (P05067 672-711 limits assumed): as above

Molecule: O=c1c(O)c(-c2ccc(O)c(O)c2)oc2ccccc12 [3,3′,4′-Trihydroxyflavone]
- Effects on Aβ fibril formation (Aβ fibril): Inhibitory

Molecule: O=c1cc(-c2ccccc2)oc2cc(O)cc(O)c12 [Chrysin]
- Effects on Aβ fibril formation (Aβ fibril): Enhancing

Molecule: CC(F)CNc1ccc(-c2nc3ccc(O)cc3s2)cc1 (stereo not shown) [TS3124]
- brain concentration [1]: 4%

Molecule: O=C([O-])c1cc(=O)c2c(OCC(O)COc3cccc4oc(C(=O)[O-])cc(=O)c34)cccc2o1.[Na+].[Na+] [cromolyn sodium, Disodium cromoglicate]
- incubation time required for 50% polymerization (Aβ (1-40) peptides; Aβ 50 μM, equimolar drug, 14 minutes in the absence of drug): 75 min
- inhibition of the rate of Aβ polymerization (Aβ (1-40) peptides; equimolar concentrations with Aβ): 7 fold
- dinitrophenyl-albumin-induced plaque expansion (atherosclerotic plaque): prevented
- Aβ aggregation (thioflavin T fluorescence) (Aβ peptide; Aβ peptide 5 μM, 10 μM thioflavin T, drug at nanomolar concentration, FIG. 6): inhibition of Aβ aggregation
- Aβ amyloid peptide polymerization into oligomers and higher order aggregates (Aβ peptide; four separate in vitro assays, nanomolar concentrations): effectively inhibits
- inhaled drug-delivered-dose absorbed into the bloodstream [2]: 10-15%
- release of interleukin-6 (IL-6) (interleukin-6 (IL-6)): partially inhibited

Molecule: O=c1c(O)c(-c2ccc(O)cc2)oc2cc(O)ccc12 [5-Deoxykaempferol]
- Effects on Aβ fibril formation (Aβ fibril): Enhancing

Molecule: Fisetin
- Effects on Aβ fibril formation (Aβ fibril): Inhibitory

Molecule: O=C(O)c1cc(=O)c2c(OCC([18F])COc3cccc4oc(C(=O)O)cc(=O)c34)cccc2o1 [F-18 Cromolyn, 5,5′-(2-[18F]fluoropropane-1,3-diyl)bis(oxy)bis(4-oxo-4H-chromene-2-carboxylic acid)]
- brain uptake (accumulation) ([3]; mice, intravenous injection, 5, 30 or 60 minute, little or no washout, FIG. 4): 1%
- Tissue Distribution, blood ([3]; 5 min): 3.31 ± 1.37 % Dose/gram
- Tissue Distribution, brain ([3]; 5 min): 0.15 ± 0.37 % Dose/gram
- Tissue Distribution, heart ([3]; 5 min): 1.09 ± 0.13 % Dose/gram
- Tissue Distribution, liver ([3]; 5 min): 7.69 ± 0.41 % Dose/gram
- Tissue Distribution, lung ([3]; 5 min): 1.90 ± 1.04 % Dose/gram
- Tissue Distribution, blood ([3]; 5 min, listed as F-18 cromolyn): 3.3 % Dose/gram
- Tissue Distribution, brain ([3]; 5 min, listed as F-18 cromolyn): 0.15 % Dose/gram
- Tissue Distribution, heart ([3]; 5 min, listed as F-18 cromolyn): 1.09 % Dose/gram
- Tissue Distribution, liver ([3]; 5 min, listed as F-18 cromolyn): 7.69 % Dose/gram
- Tissue Distribution, lung ([3]; 5 min, listed as F-18 cromolyn): 1.90 % Dose/gram
- Tissue Distribution, blood ([3]; 30 min): 0.92 ± 0.20 % Dose/gram
- Tissue Distribution, brain ([3]; 30 min): 0.04 ± 0.007 % Dose/gram
- Tissue Distribution, heart ([3]; 30 min): 0.32 ± 0.03 % Dose/gram
- Tissue Distribution, blood ([3]; 60 min): 0.44 ± 0.15 % Dose/gram
- Tissue Distribution, heart ([3]; 60 min): 0.18 ± 0.07 % Dose/gram
- Tissue Distribution, liver ([3]; 60 min): 1.76 ± 0.74 % Dose/gram
- Tissue Distribution, liver ([4]; 30 min): 3.11 ± 0.36 % Dose/gram
- Tissue Distribution, lung ([4]; 30 min): 0.62 ± 0.19 % Dose/gram
- Tissue Distribution, brain ([4]; 60 min): 0.03 ± 0.004 % Dose/gram
- Tissue Distribution, heart ([4]; 60 min): 0.18 % Dose/gram
- Tissue Distribution, lung ([4]; 60 min): 0.29 ± 0.21 % Dose/gram

Molecule: O=c1c(O)c(-c2cccc(O)c2)oc2cc(O)ccc12 [3,3′,7-Trihydroxyflavone]
- Effects on Aβ fibril formation (Aβ fibril): Enhancing

Molecule: O=c1c(O)c(-c2cc(O)c(O)c(O)c2)oc2cc(O)cc(O)c12 [Myricetin]
- Effects on Aβ fibril formation (Aβ fibril): Inhibitory

Molecule: O=c1cc(-c2ccc(O)c(O)c2)oc2cc(O)cc(O)c12 [Luteolin]
- Effects on Aβ fibril formation (Aβ fibril): Inhibitory

Molecule: O=c1c(O)c(-c2ccc(O)cc2)oc2cc(O)cc(O)c12 [Kaempferol]
- Effects on Aβ fibril formation (Aβ fibril): Enhancing

Molecule: O=c1cc(-c2ccc(O)c(O)c2)oc2cc(O)ccc12 [3′,4′,7-Trihydroxyflavone]
- Effects on Aβ fibril formation (Aβ fibril): Inhibitory

Molecule: O=c1c(O)c(-c2ccc(O)c(O)c2)oc2cc(O)cc(O)c12 [Quercetin]
- Effects on Aβ fibril formation (Aβ fibril): Inhibitory
